ChEMBL document CHEMBL1201862, “PubChem BioAssay data set” (2004)
Values belong to the compound of their own block, whether it stands above or below them. Activity calls are given as the source filed them.

What was measured:
[1] = biological target: T1, Corticotropin-releasing factor receptor 2/Corticotropin-releasing factor-binding protein (Homo sapiens, UniProt P24387+Q13324); assay: Dose Response confirmation of uHTS hits for small molecule antagonists of the CRF-binding protein and CRF-R2 receptor complex.; format: functional; settings: read-out: IC50_Mean
T1 sequence (Q13324 whole entry): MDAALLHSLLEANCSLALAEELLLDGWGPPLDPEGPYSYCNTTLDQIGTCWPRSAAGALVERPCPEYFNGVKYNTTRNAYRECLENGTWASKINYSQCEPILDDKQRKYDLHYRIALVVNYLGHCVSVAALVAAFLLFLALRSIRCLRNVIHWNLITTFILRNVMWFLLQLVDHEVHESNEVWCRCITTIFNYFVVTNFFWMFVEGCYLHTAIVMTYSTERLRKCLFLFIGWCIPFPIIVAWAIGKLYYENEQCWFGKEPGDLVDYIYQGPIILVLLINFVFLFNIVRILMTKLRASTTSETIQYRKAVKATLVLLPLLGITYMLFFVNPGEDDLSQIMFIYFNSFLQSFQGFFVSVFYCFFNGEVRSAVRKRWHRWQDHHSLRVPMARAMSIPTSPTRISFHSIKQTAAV
T1 sequence (P24387 whole entry): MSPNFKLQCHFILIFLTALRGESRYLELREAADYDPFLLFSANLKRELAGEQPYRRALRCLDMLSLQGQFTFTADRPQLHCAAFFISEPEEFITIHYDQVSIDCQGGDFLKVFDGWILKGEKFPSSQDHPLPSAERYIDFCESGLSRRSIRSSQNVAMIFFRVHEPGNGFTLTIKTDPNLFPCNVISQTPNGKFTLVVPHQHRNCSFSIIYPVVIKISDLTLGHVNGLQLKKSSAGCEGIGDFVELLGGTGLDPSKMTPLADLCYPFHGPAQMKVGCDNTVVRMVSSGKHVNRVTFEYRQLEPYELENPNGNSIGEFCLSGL

[2] = biological target: T1, Corticotropin-releasing factor receptor 2/Corticotropin-releasing factor-binding protein; assay: activators of CRF receptor 2 with binding protein – uHTS hits, confirmation (AID 602473); format: functional; settings: read-out: EC50_Mean
[3] = CRF-BP/CRF-R2 complex antagonists, dose response, cell-based, uHTS hits, 384-well (AID 651639); format: functional, Homo sapiens; settings: read-out: IC50_Mean
Escherichia coli = assay: microbe, parasite or virus in culture
[4] = biological target: Peroxisome proliferator-activated receptor gamma/Nuclear receptor coactivator 1 (Homo sapiens, UniProt P37231); assay: (§1) TR-FRET dose response biochemical High Throughput Screening assay for agonists of the steroid receptor coactivator 1 (SRC-1) recruitment by the peroxisome proliferator-activated receptor gamma (PPAR gamma): non-selective agonists. [Related pubchem assays (depositor defined):AID1300, AID1808, AID504735, AID631]; format: protein assay
[5] = biological target: Peroxisome proliferator-activated receptor gamma/Nuclear receptor coactivator 3 (Homo sapiens, UniProt P37231); assay: as §1, with “3 (SRC-3)” for “1 (SRC-1)”, “assays: 1301 (Confirmation screen.), 1048 (Primary screen.)]” for “assays (depositor defined):AID1300, AID1808, AID504735, AID631]”; format: functional
[6] = biological target: T2, Heat shock factor protein 1 (Mus musculus, UniProt P38532); assay: inhibition of MG132-induced HSE-luciferase signal, confirmation, cell-based, NIH3T3, luminescence, dose retest (AID 2382); format: functional;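 note: NIH3T3 fibroblasts with HSF1-driven luciferase reporter stressed by proteasome inhibitor MG132; luminescence from HSF1-driven luciferase expression after 8 hours of MG132 stress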
T2 sequence (P38532 whole entry): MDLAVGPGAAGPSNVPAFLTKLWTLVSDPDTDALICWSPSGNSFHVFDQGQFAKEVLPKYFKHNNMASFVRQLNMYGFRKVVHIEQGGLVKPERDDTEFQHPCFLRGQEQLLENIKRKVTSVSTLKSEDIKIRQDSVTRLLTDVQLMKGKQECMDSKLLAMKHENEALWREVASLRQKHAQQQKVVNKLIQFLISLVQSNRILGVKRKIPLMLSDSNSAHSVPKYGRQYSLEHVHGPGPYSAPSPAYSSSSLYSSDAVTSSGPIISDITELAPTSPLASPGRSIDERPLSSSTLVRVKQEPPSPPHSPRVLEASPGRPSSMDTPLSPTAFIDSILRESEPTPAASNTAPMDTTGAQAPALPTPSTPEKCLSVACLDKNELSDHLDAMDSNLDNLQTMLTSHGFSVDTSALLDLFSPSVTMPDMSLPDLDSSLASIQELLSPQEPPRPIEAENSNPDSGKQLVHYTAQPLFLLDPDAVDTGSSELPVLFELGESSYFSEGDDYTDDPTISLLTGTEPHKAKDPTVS

[7] = biological target: Peroxisome proliferator-activated receptor gamma/Nuclear receptor coactivator 2 (Homo sapiens, UniProt P37231); assay: TR-FRET dose response biochemical High Throughput Screening assay for agonists of the steroid receptor coactivator 2 (SRC-2) recruitment by the peroxisome proliferator-activated receptor gamma (PPAR gamma): non-selective agonists. [Related pubchem assays: 1297, 1032 ]; format: functional
Bcl-2-like protein 10 = biological target: T3, Bcl-2-like protein 10 (Homo sapiens, UniProt Q9HD36); assay: displacers of TR3 peptide from Bcl-B, primary screen, selectivity assay for Bfl-1 inhibitor project, biochemical, fluorescence polarization, FITC-TR3 peptide (AID 748);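 note: fluorescence polarization from a fluorescein-labelled TR3 peptide binding purified Bcl-B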
T3 sequence (Q9HD36 whole entry): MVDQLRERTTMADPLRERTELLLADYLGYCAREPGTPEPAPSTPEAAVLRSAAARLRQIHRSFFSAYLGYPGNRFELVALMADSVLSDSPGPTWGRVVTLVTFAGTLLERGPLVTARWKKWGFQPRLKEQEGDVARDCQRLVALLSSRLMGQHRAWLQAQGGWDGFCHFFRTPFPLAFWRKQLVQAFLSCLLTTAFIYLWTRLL

[8] = biological target: Luciferin 4-monooxygenase (Photinus pyralis, UniProt P08659); assay: Counter Screen for Luciferase-based Assay Positives. [Related pubchem assays: 620, 618, 411 ]
Estrogen receptor = biological target: T4, Estrogen receptor (Homo sapiens, UniProt P03372);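 note: potency for inhibiting coactivator peptide recruitment to the receptor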
T4 sequence (P03372 whole entry): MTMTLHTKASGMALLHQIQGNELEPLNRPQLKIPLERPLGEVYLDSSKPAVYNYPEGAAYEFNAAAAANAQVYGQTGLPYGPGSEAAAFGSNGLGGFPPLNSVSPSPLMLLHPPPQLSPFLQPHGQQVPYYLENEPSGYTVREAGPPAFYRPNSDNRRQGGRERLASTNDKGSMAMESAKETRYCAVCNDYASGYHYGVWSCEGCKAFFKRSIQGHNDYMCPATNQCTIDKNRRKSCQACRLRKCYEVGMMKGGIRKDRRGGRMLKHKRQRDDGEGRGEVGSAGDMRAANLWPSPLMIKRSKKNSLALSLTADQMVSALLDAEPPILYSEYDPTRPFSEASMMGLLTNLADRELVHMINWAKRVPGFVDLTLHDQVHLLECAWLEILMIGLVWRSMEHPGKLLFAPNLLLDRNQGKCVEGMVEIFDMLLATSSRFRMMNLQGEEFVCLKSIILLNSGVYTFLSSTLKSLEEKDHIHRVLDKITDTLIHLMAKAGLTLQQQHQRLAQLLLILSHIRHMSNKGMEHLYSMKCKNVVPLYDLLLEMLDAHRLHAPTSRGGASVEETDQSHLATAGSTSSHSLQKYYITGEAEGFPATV

Estrogen receptor beta [9] = biological target: T5, Estrogen receptor beta (Homo sapiens, UniProt Q92731);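 note: recombinant ER-beta bound to coactivator SRC1 peptide in presence of estradiol agonist; inhibitors block coactivator peptide binding and lower the FRET signal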
Estrogen receptor beta [10] = biological target: T5, Estrogen receptor beta; assay: ERβ–SRC-3 coactivator interaction inhibitors, confirmation, orthogonal assay, biochemical, ELISA, streptavidin-HRP readout (AID 1060)
HT-1080 = assay: cytotoxicity in HT1080 fibrosarcoma cells, cell-based, fluorescence readout (AID 620); format: functional; settings: Homo sapiens
[11] = insulin promoter down-regulators in MIN6 cells, imaging, high-content screening, mouse beta cells (AID 1628); format: functional
[12] = cytotoxicity in MIN6 insulinoma cells, dose response, cytotoxicity control, cell-based, mouse insulinoma (AID 2122); format: functional;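 note: confirmatory high-throughput counterscreen run to flag cytotoxic compounds; mouse MIN-6 beta cells carrying an insulin promoter eGFP reporter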
[13] = inhibitors of intracellular T. cruzi replication, confirmation, NIH3T3 host cells, beta-gal luminescence (AID 2044); format: functional, cell-based;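 note: intracellular parasites grown in NIH/3T3 mouse fibroblasts as host cells; luminescent beta-galactosidase reporter signal from transgenic T. cruzi replicating inside host cells; inhibitors lower the luminescence signal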
[14] = cytotoxicity toward NIH3T3 fibroblasts, dose response, counter-screen, cell-based, ATP luminescence, mouse fibroblasts (AID 2010); format: functional;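 note: cells exposed to compound for about 90 hours before reading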
[15] = Luminescence Cell-Based Dose Retest to Confirm Inhibitors of Cancer Stem Cells. [Related pubchem assays (depositor defined):AID2717, AID2721]; format: functional; settings: Homo sapiens
Bcl-2-related protein A1 = biological target: T6, Bcl-2-related protein A1 (Mus musculus, UniProt Q07440); format: functional;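 note: confirmatory dose–response counterscreen on Bfl-1, used to check hits from a UBC13 polyubiquitin inhibitor campaign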
T6 sequence (Q07440 whole entry): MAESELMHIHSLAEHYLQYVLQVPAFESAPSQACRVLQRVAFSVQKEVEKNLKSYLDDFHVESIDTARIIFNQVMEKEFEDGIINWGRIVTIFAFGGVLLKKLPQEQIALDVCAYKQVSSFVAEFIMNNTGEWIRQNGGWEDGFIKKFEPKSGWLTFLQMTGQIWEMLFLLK

[16] = biological target: T7, Ubiquitin-conjugating enzyme E2 N (Homo sapiens, UniProt P61088); format: functional
T7 sequence (P61088 whole entry): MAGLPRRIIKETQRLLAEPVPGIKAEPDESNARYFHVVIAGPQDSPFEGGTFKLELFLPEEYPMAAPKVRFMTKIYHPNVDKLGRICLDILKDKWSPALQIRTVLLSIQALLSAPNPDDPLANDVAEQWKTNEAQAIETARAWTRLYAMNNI

[17] = biological target: Neurotensin receptor type 1 (Homo sapiens, UniProt P30989); format: functional;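 note: Image-based confirmatory dose-response assay measuring agonist activity at NTR1; NTR1-expressing U2OS osteosarcoma cells imaged for beta-arrestin GFP spot formation; agonist potency where compounds increase beta-arrestin recruitment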
[18] = biological target: T7, Ubiquitin-conjugating enzyme E2 N; format: functional; remark: listed apart in the source
[19] = biological target: T2, Heat shock factor protein 1; assay: HSF1 potentiators in luciferase reporter cells, confirmation, cell-based, NIH3T3, luminescence, dose retest (AID 435004); format: functional;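 note: stress induced by proteasome inhibitor MG132 added 30 min after compound; luciferase reporter driven by HSF1 response element in NIH3T3 cells; actives raise luminescence as potentiators of the MG132 stress response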
[20] = biological target: T8, Apoptotic protease-activating factor 1 (Homo sapiens, UniProt O14727); format: functional
T8 sequence (O14727 whole entry): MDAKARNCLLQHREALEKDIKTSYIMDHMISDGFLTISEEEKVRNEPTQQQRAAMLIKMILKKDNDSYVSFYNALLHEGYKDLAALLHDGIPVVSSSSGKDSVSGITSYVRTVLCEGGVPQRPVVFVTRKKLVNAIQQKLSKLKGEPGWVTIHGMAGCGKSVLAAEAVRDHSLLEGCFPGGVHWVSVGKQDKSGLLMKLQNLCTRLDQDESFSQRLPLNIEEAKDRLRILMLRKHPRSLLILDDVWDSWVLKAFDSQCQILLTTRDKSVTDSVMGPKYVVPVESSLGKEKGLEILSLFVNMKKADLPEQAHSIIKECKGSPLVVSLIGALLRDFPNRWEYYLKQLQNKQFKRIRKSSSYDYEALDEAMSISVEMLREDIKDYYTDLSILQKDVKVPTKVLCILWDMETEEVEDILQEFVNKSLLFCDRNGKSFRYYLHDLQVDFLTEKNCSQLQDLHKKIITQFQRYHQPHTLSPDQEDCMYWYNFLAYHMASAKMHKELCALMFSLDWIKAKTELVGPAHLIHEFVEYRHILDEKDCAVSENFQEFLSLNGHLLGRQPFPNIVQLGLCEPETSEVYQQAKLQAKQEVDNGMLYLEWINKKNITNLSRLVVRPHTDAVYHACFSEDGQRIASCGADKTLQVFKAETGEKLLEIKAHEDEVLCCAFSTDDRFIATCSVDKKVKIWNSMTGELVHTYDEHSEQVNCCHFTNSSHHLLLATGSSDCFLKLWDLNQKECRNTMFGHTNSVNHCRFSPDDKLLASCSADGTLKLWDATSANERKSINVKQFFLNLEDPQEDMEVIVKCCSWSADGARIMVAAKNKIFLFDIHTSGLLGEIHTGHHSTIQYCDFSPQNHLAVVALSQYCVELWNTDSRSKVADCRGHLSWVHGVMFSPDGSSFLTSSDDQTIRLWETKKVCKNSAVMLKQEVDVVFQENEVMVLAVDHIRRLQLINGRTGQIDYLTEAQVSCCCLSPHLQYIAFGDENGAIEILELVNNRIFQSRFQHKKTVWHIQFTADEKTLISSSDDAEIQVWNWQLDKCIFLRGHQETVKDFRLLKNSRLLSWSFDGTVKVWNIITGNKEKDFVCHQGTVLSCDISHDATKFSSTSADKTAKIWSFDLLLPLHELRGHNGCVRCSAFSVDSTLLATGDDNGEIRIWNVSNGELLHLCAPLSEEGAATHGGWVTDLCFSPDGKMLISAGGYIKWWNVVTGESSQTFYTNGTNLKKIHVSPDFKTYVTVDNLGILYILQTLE

Chain of Peroxisome proliferator-activated receptor gamma/Nuclear receptor coactivator 2 (P37231 whole entry): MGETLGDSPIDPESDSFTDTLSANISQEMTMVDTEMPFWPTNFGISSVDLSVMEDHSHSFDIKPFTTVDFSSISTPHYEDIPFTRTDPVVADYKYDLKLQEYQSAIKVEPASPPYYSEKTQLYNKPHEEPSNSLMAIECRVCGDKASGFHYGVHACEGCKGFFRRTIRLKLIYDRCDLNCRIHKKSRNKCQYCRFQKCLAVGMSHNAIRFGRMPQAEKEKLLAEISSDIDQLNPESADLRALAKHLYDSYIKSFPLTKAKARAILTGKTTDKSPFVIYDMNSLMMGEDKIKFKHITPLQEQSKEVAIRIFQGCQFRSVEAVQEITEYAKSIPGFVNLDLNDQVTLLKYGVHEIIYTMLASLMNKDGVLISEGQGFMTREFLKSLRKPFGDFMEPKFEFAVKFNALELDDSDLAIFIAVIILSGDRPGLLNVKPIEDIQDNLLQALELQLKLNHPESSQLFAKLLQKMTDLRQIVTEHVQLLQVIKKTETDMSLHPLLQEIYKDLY
Chain of Peroxisome proliferator-activated receptor gamma/Nuclear receptor coactivator 2 (Q15596 whole entry, further chain): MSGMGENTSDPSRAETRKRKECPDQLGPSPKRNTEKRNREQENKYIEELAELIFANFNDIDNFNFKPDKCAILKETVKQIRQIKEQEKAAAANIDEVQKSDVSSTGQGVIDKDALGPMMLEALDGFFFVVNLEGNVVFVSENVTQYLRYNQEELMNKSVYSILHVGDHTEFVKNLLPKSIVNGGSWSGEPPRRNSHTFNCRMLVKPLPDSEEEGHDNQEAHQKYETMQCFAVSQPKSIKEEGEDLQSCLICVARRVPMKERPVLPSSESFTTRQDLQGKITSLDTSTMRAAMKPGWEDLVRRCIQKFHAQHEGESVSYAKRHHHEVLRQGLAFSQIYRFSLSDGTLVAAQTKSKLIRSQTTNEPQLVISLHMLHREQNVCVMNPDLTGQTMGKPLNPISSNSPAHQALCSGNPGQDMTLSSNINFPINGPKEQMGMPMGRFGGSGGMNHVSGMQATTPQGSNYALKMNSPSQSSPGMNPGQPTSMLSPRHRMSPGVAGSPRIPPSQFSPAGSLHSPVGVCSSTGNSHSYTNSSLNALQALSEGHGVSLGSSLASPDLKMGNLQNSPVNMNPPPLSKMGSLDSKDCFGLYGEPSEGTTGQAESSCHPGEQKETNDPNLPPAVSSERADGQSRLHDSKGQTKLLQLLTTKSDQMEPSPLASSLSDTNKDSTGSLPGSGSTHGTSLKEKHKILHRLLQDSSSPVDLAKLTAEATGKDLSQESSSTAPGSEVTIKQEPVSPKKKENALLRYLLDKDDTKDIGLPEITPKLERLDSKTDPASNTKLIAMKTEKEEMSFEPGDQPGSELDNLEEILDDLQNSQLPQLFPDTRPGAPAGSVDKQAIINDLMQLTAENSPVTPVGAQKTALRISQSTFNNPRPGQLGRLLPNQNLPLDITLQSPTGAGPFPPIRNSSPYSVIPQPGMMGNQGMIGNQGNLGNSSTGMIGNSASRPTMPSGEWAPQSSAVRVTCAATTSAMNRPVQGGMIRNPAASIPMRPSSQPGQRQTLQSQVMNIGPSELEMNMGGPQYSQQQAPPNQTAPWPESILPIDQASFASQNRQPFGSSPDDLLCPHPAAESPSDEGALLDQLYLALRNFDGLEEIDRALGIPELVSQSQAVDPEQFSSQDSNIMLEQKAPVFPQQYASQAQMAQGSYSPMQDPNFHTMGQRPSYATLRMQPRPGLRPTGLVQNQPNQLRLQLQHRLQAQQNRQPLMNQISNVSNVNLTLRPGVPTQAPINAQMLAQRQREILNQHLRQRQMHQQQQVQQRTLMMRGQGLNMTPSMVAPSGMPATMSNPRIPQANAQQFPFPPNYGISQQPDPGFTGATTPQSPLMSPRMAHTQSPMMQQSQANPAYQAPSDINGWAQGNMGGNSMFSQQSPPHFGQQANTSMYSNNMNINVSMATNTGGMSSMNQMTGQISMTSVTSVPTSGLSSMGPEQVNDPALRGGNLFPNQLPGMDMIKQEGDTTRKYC
Chain of Peroxisome proliferator-activated receptor gamma/Nuclear receptor coactivator 1 (P37231 whole entry): as the sequence (P37231 whole entry) above
Chain of Peroxisome proliferator-activated receptor gamma/Nuclear receptor coactivator 1 (Q15788 whole entry, further chain): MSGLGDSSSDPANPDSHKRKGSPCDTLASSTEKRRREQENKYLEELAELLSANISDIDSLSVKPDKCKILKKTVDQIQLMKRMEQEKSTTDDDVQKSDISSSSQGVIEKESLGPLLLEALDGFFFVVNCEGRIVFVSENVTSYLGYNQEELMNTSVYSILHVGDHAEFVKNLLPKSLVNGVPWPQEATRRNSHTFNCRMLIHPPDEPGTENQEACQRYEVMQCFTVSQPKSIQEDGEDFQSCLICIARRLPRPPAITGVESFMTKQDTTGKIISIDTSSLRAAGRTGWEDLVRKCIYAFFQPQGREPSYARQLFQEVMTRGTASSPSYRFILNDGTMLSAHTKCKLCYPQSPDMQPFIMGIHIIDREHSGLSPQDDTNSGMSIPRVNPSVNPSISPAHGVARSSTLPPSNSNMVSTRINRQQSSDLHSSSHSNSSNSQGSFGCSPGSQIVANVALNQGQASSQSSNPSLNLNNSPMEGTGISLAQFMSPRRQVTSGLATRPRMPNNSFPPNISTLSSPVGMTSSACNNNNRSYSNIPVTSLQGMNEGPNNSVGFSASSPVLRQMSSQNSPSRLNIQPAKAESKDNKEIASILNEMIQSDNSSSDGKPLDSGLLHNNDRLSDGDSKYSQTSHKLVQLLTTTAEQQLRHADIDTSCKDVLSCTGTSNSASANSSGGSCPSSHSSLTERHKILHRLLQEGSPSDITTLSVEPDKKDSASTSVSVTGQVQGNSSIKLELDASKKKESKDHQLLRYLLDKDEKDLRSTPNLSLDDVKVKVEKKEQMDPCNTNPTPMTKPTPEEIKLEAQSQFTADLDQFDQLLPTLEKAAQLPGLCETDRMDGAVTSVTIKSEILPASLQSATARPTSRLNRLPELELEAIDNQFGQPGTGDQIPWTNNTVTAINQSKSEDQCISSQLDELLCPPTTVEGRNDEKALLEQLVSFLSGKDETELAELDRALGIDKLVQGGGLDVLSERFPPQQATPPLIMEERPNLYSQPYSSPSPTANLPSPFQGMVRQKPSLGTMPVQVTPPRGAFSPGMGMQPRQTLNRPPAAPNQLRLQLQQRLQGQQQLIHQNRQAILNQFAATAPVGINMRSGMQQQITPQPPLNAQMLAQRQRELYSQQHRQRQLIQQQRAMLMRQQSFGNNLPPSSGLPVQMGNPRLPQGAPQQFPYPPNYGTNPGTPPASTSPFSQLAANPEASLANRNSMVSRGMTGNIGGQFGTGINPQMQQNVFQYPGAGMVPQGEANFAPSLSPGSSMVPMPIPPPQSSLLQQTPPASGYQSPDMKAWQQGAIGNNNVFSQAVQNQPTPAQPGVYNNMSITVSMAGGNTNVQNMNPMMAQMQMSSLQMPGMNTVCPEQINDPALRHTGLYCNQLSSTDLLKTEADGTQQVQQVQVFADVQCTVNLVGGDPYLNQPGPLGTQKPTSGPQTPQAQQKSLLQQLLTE
T5 sequence (Q92731 whole entry): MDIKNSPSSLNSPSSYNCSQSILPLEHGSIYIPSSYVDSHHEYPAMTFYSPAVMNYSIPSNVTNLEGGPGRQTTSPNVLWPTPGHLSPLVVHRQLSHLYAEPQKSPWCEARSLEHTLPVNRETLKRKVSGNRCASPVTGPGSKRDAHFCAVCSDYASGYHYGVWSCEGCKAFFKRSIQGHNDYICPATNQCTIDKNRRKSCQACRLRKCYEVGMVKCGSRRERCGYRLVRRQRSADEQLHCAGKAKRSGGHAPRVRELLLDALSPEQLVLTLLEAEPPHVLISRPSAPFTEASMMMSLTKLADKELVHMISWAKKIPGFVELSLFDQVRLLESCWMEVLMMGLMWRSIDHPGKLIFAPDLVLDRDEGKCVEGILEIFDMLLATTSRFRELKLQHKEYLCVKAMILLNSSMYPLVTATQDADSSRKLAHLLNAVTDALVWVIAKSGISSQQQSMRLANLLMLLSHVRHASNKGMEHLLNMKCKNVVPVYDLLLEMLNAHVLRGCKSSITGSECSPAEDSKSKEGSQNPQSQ
Chain of Neurotensin receptor type 1 (P30989 whole entry): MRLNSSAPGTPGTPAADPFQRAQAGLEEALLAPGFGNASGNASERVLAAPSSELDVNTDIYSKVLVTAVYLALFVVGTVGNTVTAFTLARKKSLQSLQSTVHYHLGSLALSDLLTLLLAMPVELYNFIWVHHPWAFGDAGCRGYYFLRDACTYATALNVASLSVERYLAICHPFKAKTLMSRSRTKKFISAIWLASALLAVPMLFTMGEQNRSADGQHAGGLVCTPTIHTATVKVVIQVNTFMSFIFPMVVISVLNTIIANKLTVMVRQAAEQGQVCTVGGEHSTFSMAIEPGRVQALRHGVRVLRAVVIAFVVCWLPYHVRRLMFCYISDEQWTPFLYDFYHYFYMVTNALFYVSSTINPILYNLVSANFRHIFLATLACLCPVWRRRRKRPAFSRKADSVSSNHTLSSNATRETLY

Compound: O=C(NC(Cc1ccccc1)c1nc2ccccc2[nH]1)c1ccc(Cl)c([N+](=O)[O-])c1 (stereo not drawn)
IC50 [1]: 11.6 µM (active)
EC50 [2]: > 53 µM (inactive)
IC50 [3]: 4.96 µM (active)
AC50 (Escherichia coli): 25 µM (active)

Compound: COC(C(=O)Nc1ccnn1C1CCN(Cc2ccc(C)o2)CC1)c1ccccc1 (stereo not drawn)
AC50 (Escherichia coli): 74.5 µM (active)

Compound: CCc1ccc(NC(=O)c2noc3c2CCC3)cc1
IC50 (Bcl-2-like protein 10): 21.7 µM (active)
EC50 [8]: 1.4 µM (active)
IC50 (Estrogen receptor): 7.94 µM (active)
IC50 (Estrogen receptor beta [9]): 5.5 µM (active)
IC50 (Estrogen receptor beta [10]): < 0.023 µM (not active)
EC50 (HT-1080): > 50 µM (not active)

Compound: CCCCCCOc1ccc(/C(C)=N/NC2=NCCN2)cc1[N+](=O)[O-]
IC50 [11]: 2.34 µM (active)
IC50 [12]: 2.11 µM (active)
EC50 [13]: 2.15 µM (active)
EC50 [14]: > 30 µM (not active)
AC50 [15]: 4.9 µM (active)
IC50 (Bcl-2-related protein A1): > 20 µM (inactive)
IC50 [16]: 12.6 µM (active)
EC50 [17]: 18.9 µM (active)
IC50 [18]: 12.1 µM (active)
EC50 [19]: > 260 µM (inactive)
IC50 [20]: 70.5 µM (active)

Next, values leading:

EC50 [4]: 4.86 µM (active)
EC50 [5]: 20.2 µM (not active)
EC50 [6]: > 195 µM (not active)
EC50 [7]: 7.93 µM (active)
Compound: Cn1c(S)nnc1-c1sc2cc(C(F)(F)F)cnc2c1-c1cccnc1

IC50 (Bcl-2-like protein 10): 71 µM (inactive)
Compound: C=CCn1c(SCC(=O)OC)nc2sc3c(c2c1=O)CCN(C)C3

EC50 [4]: 31.8 µM (inactive)
EC50 [5]: > 79.4 µM (not active)
EC50 [7]: 30.2 µM (not active)
Compound: COc1ccc(C2CC(c3ccc(Br)cc3)=NN2C(S)=Nc2ccccc2)cc1 (stereo not drawn)

EC50 [4]: > 79.4 µM (inactive)
EC50 [5]: > 79.4 µM (not active)
EC50 [7]: > 79.4 µM (not active)
Compound: N#Cc1cc(C(=O)c2cc(Br)ccc2O)cn(Cc2ccccc2)c1=O
